# In US10654896B2, “FoxP3-binding peptides and uses thereof” (FUNDACIÓN PARA LA INVESTIGACIÓN MÉDICA APLICADA, priority 2016, dated 2020):
# Experiments:
# [1] = molecular target: T1, FOXP3/Runx1 heterodimerization (Homo sapiens, UniProt Q9BZS1); test: FOXP3/Runx1 heterodimerization inhibition (Alphascreen); type: biochemical; details: peptide 100 μM
# T1 construct: made in house; host or cells: E. coli BL21 (DE3)
# T1 sequence (Q9BZS1 1-431): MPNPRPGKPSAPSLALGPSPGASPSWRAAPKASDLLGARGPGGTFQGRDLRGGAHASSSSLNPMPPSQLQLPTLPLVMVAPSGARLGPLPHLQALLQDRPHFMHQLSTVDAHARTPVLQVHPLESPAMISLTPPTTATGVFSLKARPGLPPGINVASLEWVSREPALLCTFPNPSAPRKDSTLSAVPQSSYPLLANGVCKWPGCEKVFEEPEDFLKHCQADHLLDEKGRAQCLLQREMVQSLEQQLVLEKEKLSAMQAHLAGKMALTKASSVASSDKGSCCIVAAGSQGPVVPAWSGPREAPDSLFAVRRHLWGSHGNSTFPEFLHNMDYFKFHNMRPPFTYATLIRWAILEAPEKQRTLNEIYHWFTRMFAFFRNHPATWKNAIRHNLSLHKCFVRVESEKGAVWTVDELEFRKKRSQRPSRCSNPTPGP
# Text: (§1) Plasmid pET20b FOXP3-His was generated to produce the human FOXP3 tagged with 6 histidines at the C terminus of the protein. Briefly, plasmid pDEST15-FOXP3 (provided by Dr. Casal, Madrid, Spain) was used as template to amplify FOXP3 by PCR using the primers Upper FOXP3 Ndel catatgcccaaccccaggc (SEQ ID NO: 55) and Lower FOXP3 […] (SEQ ID NO: 56). The resulting fragment was subcloned in pET20b at Ndel and NotI sites. pET45b His-Runx1 was obtained by PCR of activated human CD4 T cells obtained from healthy volunteers (after the signature of an informed consent) using the primers Upper Runx1 atgcgtatccccgtagatg (SEQ ID NO: 57) and Lower Runx1 […] (SEQ ID NO: 58) and the fragment was cloned in pcDNA3.1. Then, pET45b and pcDNA3.1-Runx1 were digested with BamHI and NotI and ligated to obtain pET45b-Runx1. Plasmids were used to transform BL21 cells (DE3; Novagen, Schwalbach, Germany) for the expression of the recombinant protein. The transformed BL21 cells were grown in LB medium at 37° C. (1 liter of final culture medium) (with ampicilin 0.1 mg/ml). Once the OD of the culture was between 0.5 and 1.0, IPTG (0.4 mM, final concentration) was added. Bacteria were then cultured overnight in agitation and centrifuged for 10 min at 8000 rpm. Cell pellet was then resuspended in 4 ml Tris-HCl 0.1 M and frozen at −80° C. Cell pellet was then thawed and incubated with lisozyme (25 KU) and a protease inhibitor cocktail for 15 min at 30° C. before cell lysis induced with a French-press. The resultant pool was then centrifuged during 20 min at 11.000 rpm). The recombinant protein was purified from the soluble fraction of French-press cell extracts by affinity chromatography (Histrap, Pharmacia) following manufacturer's instructions and using an FPLC platform (AKTA, Pharmacia). Plasmid pDEST15-FOXP3 encoding the fusion protein GST-FOXP3 (GST fused to the isoform A from human FOXP3 gene), was transformed into BL21 cells for the expression of the recombinant protein. GST-FOXP3 protein was purified from the soluble fraction of cell extracts obtained, as described above, by affinity chromatography (GSTrap; Amersham, Piscataway, N.J.) using a fast protein liquid chromatography platform (AKTA; Amersham) following manufacturer's instructions. The eluted proteins were desalted using Hitrap desalting columns (Pharmacia) and analyzed by SDS-PAGE using Coomassie blue (Bio-Safe Coomassie reagent; Bio-Rad, Hercules, Calif.) and by Western blot.
# It has been described that dimerization of FOXP3 is required for its function as a transcriptional regulator. Moreover, interaction between FOXP3 and the transcription factor Runx1, is crucially required for normal hematopoiesis including thymic T-cell development, but also for Treg suppressor activity (Reviewed in Lozano et al, Front Oncol. 2013, 3:294). Both activities are mediated by the intermediate region of Foxp3, which is the area of interaction between P60 and Foxp3. Thus, we studied the effect of P60 and their mutants on the FOXP3/Runx1 heterodimerization, as well as FOXP3/FOXP3 homodimerization by Alphascreen technology according to the manufacturer's instructions (Perkin Elmer, Benelux). AlphaScreen™ is a bead-based technology that is designed to measure the proximity of donor and acceptor beads conjugated to biomolecules of interest.
# To measure Foxp3-Runx1 interactions, Foxp3-GST and […] proteins were used.
# Recombinant Runx1 expressed in E. Coli with a hexa-histidine tag (obtained as disclosed in section (1) above) was captured by nickel chelate acceptor beads following manufacturer's instructions, whereas the recombinant FOXP3 expressed with a GST tag was captured by glutathione donor beads (Perkin Elmer) following manufacturer's instructions. His-tagged Runx1 (46 nM final concentration) was incubated with 100 nM GST-FOXP3 and the peptides to be tested (added at different concentrations from 1 to 100 μM) for 1 h at room temperature. […]
# human FOXP3 (FOXP3-6His) = molecular target: T2, human FOXP3 (FOXP3-6His) (Homo sapiens, UniProt Q9BZS1); test: Peptide binding to FOXP3 by surface plasmon resonance (SPR); details: peptides 1-20 μM; ratio to p60 (SEQ ID NO: 1)
# T2 construct: 6xHis (C); made in house; host or cells: E. coli BL21 (DE3)
# T2 sequence (Q9BZS1 1-431): T1 sequence (Q9BZS1 1-431)
# Text: as §1
# Screening of peptide binding to FOXP3 was performed by surface plasmon resonance (SPR) using ProteOn XPR36 (Bio-Rad, Hercules Calif., USA) optical biosensor. Recombinant protein FOXP3-6His was produced and purified from E. coli as disclosed in previous section and was immobilized covalently onto a GLM sensor chip (176-5012, Bio-Rad) using sulfo-NHS and EDC (Bio-Rad) coupling reagents and the manufacturer's instructions. After protein immobilization, chip surface was treated with ethanolamine to deactivate the excess of reactive esters.
# Individual solutions of the peptides to be tested (1-20 μM) were injected by triplicate in running buffer (Phosphate buffered saline, 0.005% (v/v) Tween 20, pH 7.4) at a flow of 30 μl/min. The interspot signal (obtained in the chip surface not immobilized with protein) was used as reference. The results are summarized in Table 6 below as the ratio Peptide of the invention/p60.
# [2] = Human liver microsomal stability; type: in vitro ADME; details: for remaining at 20 min, 1 μM: read-out: % Remaining after 20 min; for remaining at 1 h, 1 μM: 60 min, read-out: % Remaining after 60 min
# Method: (§2) The data collected were analyzed to calculate a half-life (t1/2, min) for tested peptides at a final concentration of 1 μM. Briefly, 5 μL of stock solution of tested peptide (10 mM) were diluted in 495 μL of 1:1 Methanol/Water (final concentration of 100 μM, 50% MeOH). Then, 50 μL of this intermediate solution were diluted in 450 μL of 100 mM potassium phosphate buffer to a concentration of 10 μM (working solution, 5% MeOH). The NADPH regenerating system contains β-Nicotinamide adenine dinucleotide phosphate (Sigma, Cat. # N0505), Isocitric acid (Sigma, Cat. #11252) and Isocitric dehydrogenase (Sigma, Cat. #12002) at a final concentration of 1 unit/mL at incubation.
# (§3) Human liver microsomes were obtained from BD Gentest (Cat. #452117) and mouse liver microsomes from Xenotech (Cat. # M1000), to a final concentration of 0.7 mg protein/mL. A volume of 10 μL of peptide solution and 80 μL of microsome solution were added to a 96-well plate and incubated for 10 min at 37° C. The reaction was started by the addition of 10 μL of NADPH regenerating system and stopped by the addition of 300 μL of stop solution (ACN at 4° C., including 100 ng/mL Tolbutamide and 100 ng/mL of Labetalol as internal standard) at different incubation times (0, 5, 10, 20, 30 and 60 min). Concentrations of test compound were quantified by LC-MS/MS methodologies (Shimadzu LC 20-AD/API4000) using peak area ratio of analyte/internal standard and the percent loss of parent compound was calculated under each time point to determine the half-life.
# [3] = Mouse liver microsomal stability; type: in vitro ADME; details: mouse liver microsomes; for remaining at 20 min, 1 μM: read-out: % Remaining after 20 min; for remaining at 1 h, 1 μM: 60 min, read-out: % Remaining after 60 min; for half-life: peptide 1 μM
# Method: as §2, §3
# [4] = human liver microsomes, peptide 1 μM, read-out: t1/2
Molecule,Foxp3-Runx1 Inhibition % inhibition (100 μM) [1] [%],Binding to Foxp3 Ratio binding Peptide/p60 (fold change) (human FOXP3 (FOXP3-6His)),"remaining at 20 min, 1 μM ([2]; human liver microsomes) [%]","remaining at 1 h, 1 μM ([2]; human liver microsomes) [%]","half-life [2, 4] [min]","remaining at 20 min, 1 μM [3] [%]","remaining at 1 h, 1 μM [3] [%]",half-life [3] [min],"half-life ([2]; human, microsomes) [min]"
15 (RDAQSFRKMWPFFAM) [compound 15],55.6,1.1,,,,,,,
CSCC[C@@H]1NC(=O)[C@H](C)NC(=O)[C@H](Cc2ccccc2)NC(=O)[C@H](Cc2ccccc2)NC(=O)[C@@H]2CCCN2C(=O)[C@H](Cc2c[nH]c3ccccc23)NC(=O)[C@H](CCSC)NC(=O)[C@H](CCCCN)NC(=O)[C@H](CCCNC(=N)N)NC(=O)[C@H](Cc2ccccc2)NC(=O)[C@H](C)NC(=O)[C@H](CCC(N)=O)NC(=O)[C@H](Cc2ccccc2)NC(=O)[C@@H](C)NC(=O)[C@H](CCCNC(=N)N)NCCCNC1=O [compound 52],,,76.9,40.1,41.4,98.9,48,46.9,
CSCC[C@@H]1NC(=O)[C@H](C)NC(=O)[C@H](Cc2ccccc2)NC(=O)[C@H](Cc2ccccc2)NC(=O)[C@@H]2CCCN2C(=O)[C@H](Cc2c[nH]c3ccccc23)NC(=O)[C@H](CCSC)NC(=O)[C@H](CCCCN)NC(=O)[C@H](CCCNC(=N)N)NC(=O)[C@H](Cc2ccccc2)NC(=O)[C@H](C)NC(=O)[C@H](CCC(N)=O)NC(=O)[C@H](Cc2ccccc2)NC(=O)[C@@H](C)NC(=O)[C@H](CCCNC(=N)N)NCCNC(=O)CNC1=O [compound 53],,,32.9,2.8,,57,3.7,12.3,11.1
CSCC[C@@H]1NC(=O)[C@H](C)NC(=O)[C@H](Cc2ccccc2)NC(=O)[C@H](Cc2ccccc2)NC(=O)[C@@H]2CCCN2C(=O)[C@H](Cc2c[nH]c3ccccc23)NC(=O)[C@H](CCSC)NC(=O)[C@H](CCCCN)NC(=O)[C@H](CCCNC(=N)N)NC(=O)[C@H](Cc2ccccc2)NC(=O)[C@H](C)NC(=O)[C@H](CCC(N)=O)NC(=O)[C@H](Cc2ccccc2)NC(=O)[C@@H](C)NC(=O)[C@H](CCCNC(=N)N)NCCOCCNC1=O [compound 54],,,55.7,11,18.4,97.3,30.1,30.9,
